In PubChem BioAssay (NCI):
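GI50 marks 50% less growth. Definition used: TGI = concentration required for complete inhibition of growth.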

Tests used:
Experiment in all cases: growth of human tumour cells (NCI), 384-well format
HCT-15 colon = test system: HCT-15 colon
TK-10 renal = test system: TK-10 renal
T-47D breast = test system: T-47D breast
MOLT-4 leukemia = test system: MOLT-4 leukemia
SK-OV-3 ovarian = test system: SK-OV-3 ovarian
PC-3 prostate = test system: PC-3 prostate
HS 578T breast = test system: HS 578T breast
MALME-3M melanoma = test system: MALME-3M melanoma
HOP-62 NSCLC = test system: HOP-62 NSCLC
HT29 colon = test system: HT29 colon
COLO 205 colon = test system: COLO 205 colon
NCI/ADR-RES ovarian = test system: NCI/ADR-RES ovarian
K-562 leukemia = test system: K-562 leukemia
SF-539 CNS = test system: SF-539 CNS
SR leukemia = test system: SR leukemia
SK-MEL-5 melanoma = test system: SK-MEL-5 melanoma
OVCAR-5 ovarian = test system: OVCAR-5 ovarian
LOX IMVI melanoma = test system: LOX IMVI melanoma
SN12C renal = test system: SN12C renal
MCF7 breast = test system: MCF7 breast
SF-268 CNS = test system: SF-268 CNS
MDA-MB-435 melanoma = test system: MDA-MB-435 melanoma
NCI-H226 lung = test system: NCI-H226 lung
RXF 393 renal = test system: RXF 393 renal
ACHN renal = test system: ACHN renal
DU-145 prostate = test system: DU-145 prostate
NCI-H460 NSCLC = test system: NCI-H460 NSCLC
NCI-H322M lung = test system: NCI-H322M lung
MDA-MB-231 breast = test system: MDA-MB-231 breast
SW-620 colon = test system: SW-620 colon
UO-31 renal = test system: UO-31 renal
CAKI-1 renal = test system: CAKI-1 renal
NCI-H522 lung = test system: NCI-H522 lung
EKVX NSCLC = test system: EKVX NSCLC
HOP-92 NSCLC = test system: HOP-92 NSCLC
BT-549 breast = test system: BT-549 breast
NCI-H23 lung = test system: NCI-H23 lung
RPMI-8226 leukemia = test system: RPMI-8226 leukemia
A498 renal = test system: A498 renal
OVCAR-4 ovarian = test system: OVCAR-4 ovarian
MDA-MB-468 breast = test system: MDA-MB-468 breast
CCRF-CEM leukemia = test system: CCRF-CEM leukemia
KM12 colon = test system: KM12 colon
OVCAR-3 ovarian = test system: OVCAR-3 ovarian
HCC-2998 colon = test system: HCC-2998 colon
UACC-62 melanoma = test system: UACC-62 melanoma
SK-MEL-2 melanoma = test system: SK-MEL-2 melanoma
786-0 renal = test system: 786-0 renal
SF-295 CNS = test system: SF-295 CNS
M14 melanoma = test system: M14 melanoma
HL-60(TB) leukemia = test system: HL-60(TB) leukemia
SNB-75 CNS = test system: SNB-75 CNS
A549 NSCLC = test system: A549 NSCLC
SK-MEL-28 melanoma = test system: SK-MEL-28 melanoma
IGROV1 ovarian = test system: IGROV1 ovarian
HCT-116 colon = test system: HCT-116 colon
UACC-257 melanoma = test system: UACC-257 melanoma
U251 glioblastoma = test system: U251 glioblastoma

O=C(O)c1ccc2c(c1)nc(Nc1cccc(Cl)c1)c1ccncc12
GI50 (HCT-15 colon): 1740 nM
TGI (HCT-15 colon): 3660 nM
GI50 (TK-10 renal): 2140 nM
TGI (TK-10 renal): 5810 nM
GI50 (T-47D breast): 1400 nM
TGI (T-47D breast): 3550 nM
GI50 (MOLT-4 leukemia): 1400 nM
TGI (MOLT-4 leukemia): 2730 nM
GI50 (SK-OV-3 ovarian): 1430 nM
TGI (SK-OV-3 ovarian): 3940 nM
GI50 (PC-3 prostate): 1600 nM
TGI (PC-3 prostate): 3690 nM
GI50 (HS 578T breast): 445 nM
TGI (HS 578T breast): 2330 nM
GI50 (MALME-3M melanoma): 1040 nM
TGI (MALME-3M melanoma): 2560 nM
GI50 (HOP-62 NSCLC): 1730 nM
TGI (HOP-62 NSCLC): 3860 nM
GI50 (HT29 colon): 2950 nM
TGI (HT29 colon): 10100 nM
GI50 (COLO 205 colon): 1860 nM
TGI (COLO 205 colon): 4140 nM
GI50 (NCI/ADR-RES ovarian): 1690 nM
TGI (NCI/ADR-RES ovarian): 3280 nM
GI50 (K-562 leukemia): 1500 nM
TGI (K-562 leukemia): 3320 nM
GI50 (SF-539 CNS): 1190 nM
TGI (SF-539 CNS): 3000 nM
GI50 (SR leukemia): 1450 nM
TGI (SR leukemia): 2770 nM
GI50 (SK-MEL-5 melanoma): 1400 nM
TGI (SK-MEL-5 melanoma): 2710 nM
GI50 (OVCAR-5 ovarian): 1770 nM
TGI (OVCAR-5 ovarian): 8810 nM
GI50 (LOX IMVI melanoma): 1870 nM
TGI (LOX IMVI melanoma): 3800 nM
GI50 (SN12C renal): 1500 nM
TGI (SN12C renal): 3690 nM
GI50 (MCF7 breast): 1490 nM
TGI (MCF7 breast): 4060 nM
GI50 (SF-268 CNS): 1150 nM
TGI (SF-268 CNS): 2870 nM
GI50 (MDA-MB-435 melanoma): 1450 nM
TGI (MDA-MB-435 melanoma): 3330 nM
GI50 (NCI-H226 lung): 1260 nM
TGI (NCI-H226 lung): 2660 nM
GI50 (RXF 393 renal): 1560 nM
TGI (RXF 393 renal): 3980 nM
GI50 (ACHN renal): 2520 nM
TGI (ACHN renal): 8010 nM
GI50 (DU-145 prostate): 1710 nM
TGI (DU-145 prostate): 5200 nM
GI50 (NCI-H460 NSCLC): 2280 nM
TGI (NCI-H460 NSCLC): 7890 nM
GI50 (NCI-H322M lung): 1080 nM
TGI (NCI-H322M lung): 3290 nM
GI50 (MDA-MB-231 breast): 1560 nM
TGI (MDA-MB-231 breast): 3700 nM
GI50 (SW-620 colon): 2030 nM
TGI (SW-620 colon): 4790 nM
GI50 (UO-31 renal): 2150 nM
TGI (UO-31 renal): 6110 nM
GI50 (CAKI-1 renal): 1530 nM
TGI (CAKI-1 renal): 3730 nM
GI50 (NCI-H522 lung): 521 nM
TGI (NCI-H522 lung): 1840 nM
GI50 (EKVX NSCLC): 1480 nM
TGI (EKVX NSCLC): 3930 nM
GI50 (HOP-92 NSCLC): 1420 nM
TGI (HOP-92 NSCLC): 4650 nM
GI50 (BT-549 breast): 1020 nM
TGI (BT-549 breast): 2670 nM
GI50 (NCI-H23 lung): 1420 nM
TGI (NCI-H23 lung): 2970 nM
GI50 (RPMI-8226 leukemia): 1880 nM
TGI (RPMI-8226 leukemia): 3350 nM
GI50 (A498 renal): 1420 nM
TGI (A498 renal): 3310 nM
GI50 (OVCAR-4 ovarian): 1540 nM
TGI (OVCAR-4 ovarian): 6770 nM
GI50 (MDA-MB-468 breast): 656 nM
TGI (MDA-MB-468 breast): 2050 nM
GI50 (CCRF-CEM leukemia): 1180 nM
TGI (CCRF-CEM leukemia): 2420 nM
GI50 (KM12 colon): 1890 nM
TGI (KM12 colon): 4380 nM
GI50 (OVCAR-3 ovarian): 399 nM
TGI (OVCAR-3 ovarian): 1950 nM
GI50 (HCC-2998 colon): 1380 nM
TGI (HCC-2998 colon): 3890 nM
GI50 (UACC-62 melanoma): 1370 nM
TGI (UACC-62 melanoma): 2770 nM
GI50 (SK-MEL-2 melanoma): 2970 nM
TGI (SK-MEL-2 melanoma): 4540 nM
GI50 ([…]-0 renal): 1750 nM
TGI (786-0 renal): 4750 nM
GI50 (SF-295 CNS): 1810 nM
TGI (SF-295 CNS): 4590 nM
GI50 (M14 melanoma): 1270 nM
TGI (M14 melanoma): 3080 nM
GI50 (HL-60(TB) leukemia): 1540 nM
TGI (HL-60(TB) leukemia): 2930 nM
GI50 (SNB-75 CNS): 1410 nM
TGI (SNB-75 CNS): 3850 nM
GI50 (A549 NSCLC): 2990 nM
TGI (A549 NSCLC): > 100000 nM
GI50 (SK-MEL-28 melanoma): 1470 nM
TGI (SK-MEL-28 melanoma): 3160 nM
GI50 (IGROV1 ovarian): 1950 nM
TGI (IGROV1 ovarian): 4640 nM
GI50 (HCT-116 colon): 1530 nM
TGI (HCT-116 colon): 3080 nM
GI50 (UACC-257 melanoma): 1570 nM
TGI (UACC-257 melanoma): 3460 nM
GI50 (U251 glioblastoma): 888 nM
TGI (U251 glioblastoma): 2460 nM
